# Like-named read-outs stand apart in the source and are kept apart here.
# Columns and labels:
# Experiment in all cases: stopped-flow CA inhibition assay
# Format in all cases: biochemical
# [1] = molecular target: T1, hCA IX (Homo sapiens, UniProt Q16790)
# T1 construct: gene CA9; recombinant, obtained in-house
# Description: stopped-flow CA inhibition assay on hCA IX
# [2] = molecular target: T2, hCA XII (Homo sapiens, UniProt O43570)
# T2 construct: gene CA12; recombinant, obtained in-house
# T2 sequence (O43570 25-354): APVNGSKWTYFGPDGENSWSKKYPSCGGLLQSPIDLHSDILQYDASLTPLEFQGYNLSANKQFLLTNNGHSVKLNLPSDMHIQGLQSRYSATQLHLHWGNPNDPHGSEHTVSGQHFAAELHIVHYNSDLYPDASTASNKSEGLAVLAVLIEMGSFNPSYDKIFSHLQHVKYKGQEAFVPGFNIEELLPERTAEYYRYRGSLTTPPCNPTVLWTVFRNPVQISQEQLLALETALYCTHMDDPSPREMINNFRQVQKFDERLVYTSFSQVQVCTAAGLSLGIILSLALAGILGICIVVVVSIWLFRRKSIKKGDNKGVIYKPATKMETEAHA
# Description: stopped-flow CA inhibition assay on hCA XII
# [3] = molecular target: T3, hCA I (Homo sapiens, UniProt P00915)
# T3 construct: gene CA1; recombinant, obtained in-house
# T3 sequence (P00915 2-261): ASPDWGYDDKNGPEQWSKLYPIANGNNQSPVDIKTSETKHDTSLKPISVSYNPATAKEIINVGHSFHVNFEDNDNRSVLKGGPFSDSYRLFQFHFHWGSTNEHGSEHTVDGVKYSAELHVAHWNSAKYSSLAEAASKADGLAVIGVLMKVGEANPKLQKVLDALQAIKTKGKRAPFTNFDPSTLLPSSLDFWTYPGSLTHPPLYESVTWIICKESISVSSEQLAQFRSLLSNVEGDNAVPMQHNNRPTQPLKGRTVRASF
# Description: stopped-flow CA inhibition assay on hCA I
# [4] = molecular target: T4, hCA II (Homo sapiens, UniProt P00918)
# T4 construct: gene CA2; recombinant, obtained in-house
# Description: stopped-flow CA inhibition assay on hCA II
Compound,Ki [1],Ki [2],Ki [3],"Ki ([1]; mean of […] assays, errors ±[…])","Ki ([2]; mean of […] assays, errors ±[…])",Ki [4]
"NS(=O)(=O)c1ccc(CCn2c(SCC(=O)c3ccccc3)nc3ccccc3c2=O)cc1 [compound 2, 4-(2-(4-Oxo-2-((2-oxo-2-phenylethyl)thio)quinazolin-3(4H)-yl)ethyl)benzenesulfonamide]",40.7 nM,13 nM,593 nM,–,–,–
"NS(=O)(=O)c1ccc(CCn2c(SCC(=O)c3ccc(Br)cc3)nc3ccccc3c2=O)cc1 [compound 3, 4-(2-(2-((2-(4-Bromophenyl)-2-oxoethyl)thio)-4-oxoquinazolin-3(4H)-yl)ethyl)benzenesulfonamide]",75.2 nM,69.6 nM,1450 nM,–,–,–
"NS(=O)(=O)c1ccc(CCn2c(SCC(=O)c3ccc(Cl)cc3)nc3ccccc3c2=O)cc1 [compound 4, 4-(2-(2-((2-(4-Chlorophenyl)-2-oxoethyl)thio)-4-oxoquinazolin-3(4H)-yl)ethyl)benzenesulfonamide]",–,–,–,8 nM,10.8 nM,–
"NS(=O)(=O)c1ccc(CCn2c(SCC(=O)c3ccc(F)cc3)nc3ccccc3c2=O)cc1 [compound 5, 4-(2-(2-((2-(4-Fluorophenyl)-2-oxoethyl)thio)-4-oxoquinazolin-3(4H)-yl)ethyl)benzenesulfonamide]",–,9.1 nM,400 nM,16.5 nM,–,–
"Cc1ccc(C(=O)CSc2nc3ccccc3c(=O)n2CCc2ccc(S(N)(=O)=O)cc2)cc1 [compound 6, 4-(2-(4-Oxo-2-((2-oxo-2-(p-tolyl)ethyl)thio)quinazolin-3(4H)-yl)ethyl)benzenesulfonamide]",25.1 nM,85.1 nM,471 nM,–,–,–
"CC(Sc1nc2ccccc2c(=O)n1CCc1ccc(S(N)(=O)=O)cc1)C(=O)c1ccccc1 (stereo not shown) [compound 7, 4-(2-(4-Oxo-2-((1-oxo-1-phenylpropan-2-yl)thio)quinazolin-3(4H)-yl)ethyl)benzenesulfonamide]",63.2 nM,76.8 nM,978 nM,–,–,–
"NC(=O)CSc1nc2ccccc2c(=O)n1CCc1ccc(S(N)(=O)=O)cc1 [compound 8, 8]",–,–,–,34.5 nM,2.4 nM,–
"NS(=O)(=O)c1ccc(CCn2c(SCC(=O)Nc3ccccc3)nc3ccccc3c2=O)cc1 [compound 9, 9]",27.3 nM,38.4 nM,460 nM,–,–,–
"NS(=O)(=O)c1ccc(CCn2c(SCC(=O)Nc3ccc(Br)cc3)nc3ccccc3c2=O)cc1 [compound 10, 10]",64.9 nM,61 nM,697 nM,–,–,–
"NS(=O)(=O)c1ccc(CCn2c(SCC(=O)Nc3ccc(Cl)cc3)nc3ccccc3c2=O)cc1 [compound 11, 11]",66.8 nM,31.6 nM,726 nM,–,–,92 nM
"NS(=O)(=O)c1ccc(CCn2c(SCC(=O)Nc3ccc(F)cc3)nc3ccccc3c2=O)cc1 [compound 12, N-(4-fluorophenyl)-2-((4-oxo-3-(4-sulfamoylphenethyl)-3,4-dihydroquinazolin-2-yl)thio)acetamide]",–,8.7 nM,–,12.7 nM,–,–
"Cc1ccc(NC(=O)CSc2nc3ccccc3c(=O)n2CCc2ccc(S(N)(=O)=O)cc2)cc1 [compound 13, 13]",37.4 nM,45.2 nM,878 nM,–,–,–
"COc1ccc(NC(=O)CSc2nc3ccccc3c(=O)n2CCc2ccc(S(N)(=O)=O)cc2)cc1 [compound 14, 14]",84 nM,49.1 nM,2570 nM,–,–,–
"CCOc1ccc(NC(=O)CSc2nc3ccccc3c(=O)n2CCc2ccc(S(N)(=O)=O)cc2)cc1 [compound 15, 15]",35.9 nM,59.7 nM,3650 nM,–,–,–
"CC(=O)c1ccc(NC(=O)CSc2nc3ccccc3c(=O)n2CCc2ccc(S(N)(=O)=O)cc2)cc1 [compound 16, 16]",24.1 nM,22.5 nM,1700 nM,–,–,–
"COc1cc(NC(=O)CSc2nc3ccccc3c(=O)n2CCc2ccc(S(N)(=O)=O)cc2)cc(OC)c1OC [compound 17, 17]",100 nM,16.9 nM,2670 nM,–,–,–
"NS(=O)(=O)c1ccc(CCn2c(SCC(=O)NCc3ccc(F)cc3)nc3ccccc3c2=O)cc1 [compound 18, N-(4-fluorobenzyl)-2-((4-oxo-3-(4-sulfamoylphenethyl)-3,4-dihydroquinazolin-2-yl)thio)acetamide]",256 nM,113 nM,2050 nM,–,–,–
"COc1ccc(CNC(=O)CSc2nc3ccccc3c(=O)n2CCc2ccc(S(N)(=O)=O)cc2)cc1OC [compound 19, 19]",145 nM,97.3 nM,5470 nM,–,–,–
"CC(Sc1nc2ccccc2c(=O)n1CCc1ccc(S(N)(=O)=O)cc1)C(=O)Nc1ccc(Cl)cc1 (stereo not shown) [compound 20, 20]",18.6 nM,66.7 nM,3630 nM,–,–,–
